We go through 2 molecules from US20240285634A1, “COMPOUND AND METHOD FOR TREATING CHEMOTHERAPY-ASSOCIATED GASTROINTESTINAL SIDE EFFECTS” (ONQUALITY PHARMACEUTICALS CHINA LTD., priority 2021, published 2024).

Structures are written as SMILES. Structures can show the parent of a compound that is named as a salt.

The test system of assay [1] is Chemotherapeutic agent-caused constipation models of Balb/c mice. Description: Relieving effect on constipation caused by a chemotherapeutic agent (Examples 202-364). The format is in vivo. In short, it runs like this: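 Balb/c mice, 10 per group, given Formula I compound (injected or intragastric) before a chemotherapeutic agent, with dose, route and schedule per agent. Controls received solvent only or solvent plus chemotherapeutic. Faeces over 3 h recorded daily; feces reduction rate computed relative to control group.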

For assay [2], the system named is Chemotherapeutic agent-caused diarrhea models of Balb/c mice. Description: Relieving effect on diarrhea caused by a chemotherapeutic agent (Examples 1-201). The format is in vivo. The essentials:
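Balb/c mice (10/group) given Formula I compound by injection or gavage, then a chemotherapeutic agent to induce diarrhea, with solvent and chemotherapy-only controls. Diarrhea graded 0–3 daily; relative remission rate = % of treated mice graded below the chemotherapy-group average.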

As for `CC(C)N1CCN(c2ccc(Nc3ncc4cc5n(c4n3)C3(CCCCC3)CNC5=O)nc2)CC1` [Compound IV hydrochloride, Lerociclibdihydrochloride], the “Relative remission rate (%)” value in assay [1] (Example 353, Fluorouracil 100 (F), oxaliplatin 5 (O), irinotecan 100 (I) and tetrahydrofolic acid 100 (L) mg/kg intraperitoneal injection single, compound intraperitoneal injection 100 mg/kg single, 0.5 h before chemotherapeutic agent, cycle 7 days) was 20%; in assay [1] (Example 354, Fluorouracil 100 (F), oxaliplatin 5 (O), irinotecan 100 (I) and tetrahydrofolic acid 100 (L) mg/kg intraperitoneal injection single, compound intraperitoneal injection 100 mg/kg single, 12 h before chemotherapeutic agent, cycle 7 days), 60%; in assay [1] (Example 357, Topotecan intraperitoneal injection 10 mg/kg single, compound oral administration 100 mg/kg single, 24 h before chemotherapeutic agent, cycle 14 days), 30%; in assay [1] (Example 358, Topotecan intravenous injection 20 mg/kg single, compound oral administration 100 mg/kg single, 12 h before chemotherapeutic agent, cycle 14 days), 70%. Besides, the Relative remission rate in assay [2] (Ex 115, Irinotecan (CPT-11) 240 mg/kg intraperitoneal single, compound 100 mg/kg intraperitoneal single 0.5 h before, cycle 11 days) stood at 40%; in assay [2] (Ex 116, Irinotecan (CPT-11) 240 mg/kg intraperitoneal single, compound 100 mg/kg intraperitoneal single 4 h before, cycle 11 days), 60%; in assay [2] (Ex 117, Irinotecan (CPT-11) 240 mg/kg intraperitoneal single, compound 100 mg/kg intraperitoneal single 12 h before, cycle 11 days) it was 20%; in assay [2] (Ex 188, Fluorouracil 50 + oxaliplatin 5 + irinotecan 50 + tetrahydrofolic acid 90 mg/kg intravenous single, compound 100 mg/kg intraperitoneal single 0.5 h before, cycle 7 days) it was 70%; in assay [2] (Ex 189, Fluorouracil 50 + oxaliplatin 5 + irinotecan 50 + tetrahydrofolic acid 90 mg/kg intravenous single, compound 100 mg/kg intraperitoneal single 12 h before, cycle 7 days) it was 50%; in assay [2] (Ex 201, Gemcitabine 120 + carboplatin 5 mg/kg intravenous single, compound 100 mg/kg oral single 24 h before, cycle 8 days), 40%.

For the molecule `CC(C)N1CCN(c2ccc(Nc3ncc4cc5n(c4n3)C3(CCCCC3)CNC5=O)nc2)CC1` [Compound IV, Lerociclib], the “Relative remission rate (%)” value in assay [1] (Example 246, Fluorouracil (5-Fu) intravenous injection 250 mg/kg single, compound oral administration 100 mg/kg single, 0.5 h before chemotherapeutic agent, cycle 10 days) was 30%; in assay [1] (Example 247, Fluorouracil (5-Fu) intravenous injection 250 mg/kg single, compound oral administration 100 mg/kg single, 4 h before chemotherapeutic agent, cycle 10 days), 60%; in assay [1] (Example 248, Fluorouracil (5-Fu) intravenous injection 250 mg/kg single, compound oral administration 100 mg/kg single, 12 h before chemotherapeutic agent, cycle 10 days), 20%; in assay [1] (Example 351, Fluorouracil 100 (F), oxaliplatin 5 (O), irinotecan 100 (I) and tetrahydrofolic acid 100 (L) mg/kg intraperitoneal injection single, compound oral administration 100 mg/kg single, 4 h before chemotherapeutic agent, cycle 7 days) it was 60%; in assay [1] (Example 352, Fluorouracil 100 (F), oxaliplatin 5 (O), irinotecan 100 (I) and tetrahydrofolic acid 100 (L) mg/kg intraperitoneal injection single, compound oral administration 100 mg/kg single, 24 h before chemotherapeutic agent, cycle 7 days) it was 30%; in assay [1] (Example 363, Gemcitabine and carboplatin intraperitoneal injection 120 mg/kg single, compound oral administration 100 mg/kg single, 4 h before chemotherapeutic agent, cycle 8 days) it was 60%. Besides, in assay [1] (administered before the chemotherapeutic agent, Table 4 and FIG. 4), the “feces reduction rates compared with the chemotherapeutic agent group” value was “reduced to different degrees”. In addition, the Relative remission rate amounted to 60% in assay [2] (Ex 112, Irinotecan (CPT-11) 240 mg/kg intraperitoneal single, compound 100 mg/kg intraperitoneal single 0.5 h before, cycle 11 days); 50% in assay [2] (Ex 113, Irinotecan (CPT-11) 240 mg/kg intraperitoneal single, compound 100 mg/kg intraperitoneal single 4 h before, cycle 11 days); 30% in assay [2] (Ex 114, Irinotecan (CPT-11) 240 mg/kg intraperitoneal single, compound 100 mg/kg intraperitoneal single 8 h before, cycle 11 days); 30% in assay [2] (Ex 135, Fluorouracil 100 + irinotecan 200 mg/kg intraperitoneal single, compound 100 mg/kg oral single 0.5 h before, cycle 8 days); 50% in assay [2] (Ex 136, Fluorouracil 100 + irinotecan 200 mg/kg intraperitoneal single, compound 100 mg/kg oral single 12 h before, cycle 8 days); 40% in assay [2] (Ex 137, Fluorouracil 100 + irinotecan 200 mg/kg intraperitoneal single, compound 100 mg/kg oral single 24 h before, cycle 8 days). For the same molecule, the Relative remission rate in assay [2] (Ex 183, Fluorouracil 50 + oxaliplatin 5 + irinotecan 50 + tetrahydrofolic acid 90 mg/kg intravenous single, compound 100 mg/kg intraperitoneal single 0.5 h before, cycle 7 days) was 80%; in assay [2] (Ex 184, Fluorouracil 50 + oxaliplatin 5 + irinotecan 50 + tetrahydrofolic acid 90 mg/kg intravenous single, compound 100 mg/kg intraperitoneal single 4 h before, cycle 7 days), 60%; in assay [2] (Ex 185, Fluorouracil 50 + oxaliplatin 5 + irinotecan 50 + tetrahydrofolic acid 90 mg/kg intravenous single, compound 100 mg/kg intraperitoneal single 8 h before, cycle 7 days) it was 50%; in assay [2] (Ex 186, Fluorouracil 50 + oxaliplatin 5 + irinotecan 50 + tetrahydrofolic acid 90 mg/kg intravenous single, compound 100 mg/kg intraperitoneal single 12 h before, cycle 7 days) it was 50%; in assay [2] (Ex 187, Fluorouracil 50 + oxaliplatin 5 + irinotecan 50 + tetrahydrofolic acid 90 mg/kg intravenous single, compound 100 mg/kg intraperitoneal single 24 h before, cycle 7 days), 40%; in assay [2] (Ex 195, Topotecan 20 mg/kg intravenous single, compound 100 mg/kg oral single 0.5 h before, cycle 14 days), 60%. For the same molecule, the “diarrhea gradings compared with the chemotherapeutic agent group” value in assay [2] (administered before the chemotherapeutic agent, Table 3 and FIG. 2) was “relieved to different degrees”.
